# Measured values taken from publication PMC11062906 (Nature, 2024).
# Entries after “also recorded” stand apart in the source; their conditions may differ.
# Legend:
# BmGr9 [1] = target: T1, BmGr9 (Bombyx mori, UniProt B3GTD7); assay: Cell-based GCaMP calcium flux assay, wild-type BmGr9; details: for Activation of BmGr9 (change in fluorescence) by sweet compound: 100 mM sweet compound, HEK293 cells with BmGr9 plus GCaMP vs GCaMP only
# BmGr9 [2] = target: T1, BmGr9; assay: Intrinsic tryptophan fluorescence of detergent-solubilized purified BmGr9; format: binding
# [3] = target: Bombyx mori gustatory receptor Gr9 (BmGr9) (Bombyx mori) (UniProt B3GTD7); assay: native gel or EMSA; Coomassie-stained denaturing and native gels of purified BmGr9; effective molecular weight approximately 700 kDa including detergent micelle
# [4] = tested on: BmGr9 Q443, F444, and Q445 mutants; assay: GCaMP assay, L-sorbose on BmGr9 Q443, F444 and Q445 mutants; format: cell-based, Bombyx mori; details: author rebuttal
# BmGr9 [5] = target: T1, BmGr9; details: electrophysiology; ref Sato et al. PNAS, 2011; cited from earlier work
# T1 sequence (B3GTD7 entry or part of it): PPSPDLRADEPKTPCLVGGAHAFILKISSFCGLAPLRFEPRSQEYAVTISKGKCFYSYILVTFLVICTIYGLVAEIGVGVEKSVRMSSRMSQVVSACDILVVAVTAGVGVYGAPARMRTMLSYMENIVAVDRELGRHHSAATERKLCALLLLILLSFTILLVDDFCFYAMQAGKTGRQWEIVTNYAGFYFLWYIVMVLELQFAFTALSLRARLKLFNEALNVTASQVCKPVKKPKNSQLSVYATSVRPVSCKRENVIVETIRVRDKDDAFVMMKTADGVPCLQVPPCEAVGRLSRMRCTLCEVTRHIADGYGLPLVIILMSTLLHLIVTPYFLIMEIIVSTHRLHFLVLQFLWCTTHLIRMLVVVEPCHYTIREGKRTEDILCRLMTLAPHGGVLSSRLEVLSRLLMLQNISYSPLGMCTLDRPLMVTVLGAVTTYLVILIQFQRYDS
molecule,measurement,setting,value
OC[C@H]1O[C@H](O[C@]2(CCl)O[C@H](CCl)[C@@H](O)[C@@H]2O)[C@H](O)[C@@H](O)[C@H]1Cl [sucralose],Activation of BmGr9 (change in fluorescence) by sweet compound,BmGr9 [1],significantly different activity
OC[C@H]1O[C@@](CO)(O[C@H]2O[C@H](CO)[C@@H](O)[C@H](O)[C@H]2O)[C@@H](O)[C@@H]1O [sucrose],blue shift in the tryptophan fluorescence emission spectrum,BmGr9 [2]; titration of purified BmGr9,did not induce a shift
Bombyx mori gustatory receptor Gr9 (BmGr9) (from UniProt B3GTD7 2-449),stoichiometry N,[3],4
O=C(CO)[C@@H](O)[C@H](O)[C@@H](O)CO [L-sorbose],Activation of BmGr9 (change in fluorescence) by sweet compound,BmGr9 [1],not statistically different than GCaMP alone; also recorded: did not activate BmGr9 significantly
same,maximum activity in dose-response,"BmGr9 [1]; titration, n = 5, vs GCaMP-only control wells",less than control wells with GCaMP only
same,activation of BmGr9 mutants by L-sorbose,[4],does not appear that L-sorbose can activate any of these BmGr9 mutants
same,Kd,"BmGr9 [2]; KD (apparent affinity, tryptophan fluorescence), purified BmGr9 in digitonin, n = 4, 95% CI in parentheses",63 mM
same,"KD (apparent affinity, tryptophan fluorescence)","BmGr9 [2]; purified BmGr9 in digitonin, n = 4, 95% CI in parentheses",affinity close to that of D-fructose
same,activation of BmGr9 in oocytes,BmGr9 [5],not to activate
